Test results from ChEMBL document CHEMBL1150213, “Protein-tyrosine kinase inhibition: mechanism-based discovery of antitumor agents” (J Nat Prod, 1992).
Converted amounts (≈) assume the structure as drawn.

What was measured:
Insulin receptor = Insulin receptor (Homo sapiens, UniProt P06213); experiment: Inhibition of insulin receptor
[1] = target: Tyrosine-protein kinase transforming protein Fps (Fujinami sarcoma virus, UniProt P00530); experiment: Inhibition of Fujinami sarcoma virus pp130fps
K562 = experiment: Cytotoxicity against human K562 cells; type: functional, cell-based
SR = experiment: Cytotoxicity against human SR cells; type: functional, cell-based
RPMI-8226 = experiment: Cytotoxicity against human RPMI8226 cells; type: functional, cell-based
HL-60(TB) = experiment: Cytotoxicity against human HL-60(TB) cells; type: functional, cell-based
CCRF-CEM = experiment: Cytotoxicity against human CCRF-CEM cells; type: functional, cell-based
MOLT-4 = experiment: Cytotoxicity against human MOLT4 cells; type: functional, cell-based
[2] = Cytotoxicity against Rous sarcoma virus-infected rat kidney cells; type: functional
[3] = target: Epidermal growth factor receptor (Homo sapiens, UniProt P00533)
Chain of Epidermal growth factor receptor (P00533 whole entry): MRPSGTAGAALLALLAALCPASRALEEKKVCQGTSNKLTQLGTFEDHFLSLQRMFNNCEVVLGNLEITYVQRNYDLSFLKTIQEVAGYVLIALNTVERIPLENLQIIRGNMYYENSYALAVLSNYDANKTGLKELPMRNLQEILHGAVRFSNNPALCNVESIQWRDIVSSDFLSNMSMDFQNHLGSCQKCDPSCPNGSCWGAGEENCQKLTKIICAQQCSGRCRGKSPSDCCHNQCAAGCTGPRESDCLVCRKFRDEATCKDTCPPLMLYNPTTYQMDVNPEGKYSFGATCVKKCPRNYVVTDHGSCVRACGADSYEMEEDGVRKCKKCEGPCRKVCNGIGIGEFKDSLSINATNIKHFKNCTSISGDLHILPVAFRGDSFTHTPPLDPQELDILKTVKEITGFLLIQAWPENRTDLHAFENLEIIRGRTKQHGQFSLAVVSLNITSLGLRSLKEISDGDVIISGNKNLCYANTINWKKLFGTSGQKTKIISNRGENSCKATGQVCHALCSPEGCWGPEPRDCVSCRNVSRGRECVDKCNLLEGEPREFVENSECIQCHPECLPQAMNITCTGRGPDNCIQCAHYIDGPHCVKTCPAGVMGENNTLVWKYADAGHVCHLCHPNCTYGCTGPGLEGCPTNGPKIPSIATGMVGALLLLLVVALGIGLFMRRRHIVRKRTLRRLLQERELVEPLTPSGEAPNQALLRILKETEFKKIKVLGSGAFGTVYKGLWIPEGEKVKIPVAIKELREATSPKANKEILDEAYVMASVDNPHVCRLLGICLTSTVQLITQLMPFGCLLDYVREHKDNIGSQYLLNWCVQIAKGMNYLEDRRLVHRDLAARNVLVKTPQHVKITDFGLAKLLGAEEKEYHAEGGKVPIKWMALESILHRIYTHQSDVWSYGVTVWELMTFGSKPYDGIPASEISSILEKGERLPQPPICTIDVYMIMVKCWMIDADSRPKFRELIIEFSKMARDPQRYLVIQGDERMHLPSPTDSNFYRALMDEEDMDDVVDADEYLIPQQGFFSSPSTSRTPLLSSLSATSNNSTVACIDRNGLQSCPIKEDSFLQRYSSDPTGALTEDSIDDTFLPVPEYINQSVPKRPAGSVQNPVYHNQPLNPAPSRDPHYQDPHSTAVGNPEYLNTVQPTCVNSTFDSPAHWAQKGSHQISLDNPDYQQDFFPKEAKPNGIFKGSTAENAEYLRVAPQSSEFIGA

L1210 [4] = experiment: Cytotoxicity against mouse L1210 cells; type: functional
A-431 = experiment: Cytotoxicity against human A431 cells; type: functional
L1210 [5] = experiment: Iv vivo cytotoxicity against mouse L1210 cells relative to control in presence of foroxymithine; type: functional

Chain of Tyrosine-protein kinase transforming protein Fps (P00530 whole entry): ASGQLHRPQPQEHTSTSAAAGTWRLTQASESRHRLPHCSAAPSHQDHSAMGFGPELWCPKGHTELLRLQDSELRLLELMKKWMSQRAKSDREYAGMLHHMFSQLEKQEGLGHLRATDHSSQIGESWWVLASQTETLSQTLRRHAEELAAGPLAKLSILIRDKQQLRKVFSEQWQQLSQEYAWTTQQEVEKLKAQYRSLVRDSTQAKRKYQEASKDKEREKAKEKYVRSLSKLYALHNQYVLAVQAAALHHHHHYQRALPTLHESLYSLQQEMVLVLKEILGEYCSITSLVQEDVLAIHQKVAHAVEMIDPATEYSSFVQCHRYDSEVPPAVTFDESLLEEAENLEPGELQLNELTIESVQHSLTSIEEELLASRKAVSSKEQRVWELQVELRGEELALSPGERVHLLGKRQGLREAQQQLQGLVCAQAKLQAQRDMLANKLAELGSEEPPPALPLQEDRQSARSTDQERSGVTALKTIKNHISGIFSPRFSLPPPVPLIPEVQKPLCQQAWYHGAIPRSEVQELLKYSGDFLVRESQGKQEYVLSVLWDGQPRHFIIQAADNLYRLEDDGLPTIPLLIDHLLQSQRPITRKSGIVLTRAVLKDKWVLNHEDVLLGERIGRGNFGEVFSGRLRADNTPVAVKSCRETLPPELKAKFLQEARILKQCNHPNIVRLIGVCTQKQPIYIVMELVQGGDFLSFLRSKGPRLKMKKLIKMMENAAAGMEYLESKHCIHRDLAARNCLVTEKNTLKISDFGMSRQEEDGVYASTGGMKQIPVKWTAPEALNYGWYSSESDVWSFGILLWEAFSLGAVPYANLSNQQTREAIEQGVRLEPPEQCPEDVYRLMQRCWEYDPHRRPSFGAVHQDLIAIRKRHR
Chain of Insulin receptor (P06213 28-758 limits assumed): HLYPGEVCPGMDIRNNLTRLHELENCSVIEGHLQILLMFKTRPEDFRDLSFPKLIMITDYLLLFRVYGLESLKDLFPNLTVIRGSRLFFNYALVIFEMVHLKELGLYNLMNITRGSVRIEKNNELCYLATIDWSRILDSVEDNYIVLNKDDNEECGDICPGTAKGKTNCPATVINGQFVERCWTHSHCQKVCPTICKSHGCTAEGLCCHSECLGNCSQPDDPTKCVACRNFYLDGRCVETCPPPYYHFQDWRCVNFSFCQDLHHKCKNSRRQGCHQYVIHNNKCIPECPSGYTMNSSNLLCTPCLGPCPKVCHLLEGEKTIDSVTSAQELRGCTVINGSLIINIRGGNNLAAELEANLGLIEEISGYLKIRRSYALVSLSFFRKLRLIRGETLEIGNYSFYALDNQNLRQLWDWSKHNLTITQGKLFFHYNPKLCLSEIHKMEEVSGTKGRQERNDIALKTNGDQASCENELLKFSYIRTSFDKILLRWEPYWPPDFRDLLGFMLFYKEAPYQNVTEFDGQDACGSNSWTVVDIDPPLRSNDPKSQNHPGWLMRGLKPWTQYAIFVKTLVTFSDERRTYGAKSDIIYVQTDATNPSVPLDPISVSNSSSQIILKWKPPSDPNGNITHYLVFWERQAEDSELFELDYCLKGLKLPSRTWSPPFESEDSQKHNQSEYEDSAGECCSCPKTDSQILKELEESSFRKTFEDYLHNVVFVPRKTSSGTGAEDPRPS
Chain of Insulin receptor (P06213 763-1382 limits assumed): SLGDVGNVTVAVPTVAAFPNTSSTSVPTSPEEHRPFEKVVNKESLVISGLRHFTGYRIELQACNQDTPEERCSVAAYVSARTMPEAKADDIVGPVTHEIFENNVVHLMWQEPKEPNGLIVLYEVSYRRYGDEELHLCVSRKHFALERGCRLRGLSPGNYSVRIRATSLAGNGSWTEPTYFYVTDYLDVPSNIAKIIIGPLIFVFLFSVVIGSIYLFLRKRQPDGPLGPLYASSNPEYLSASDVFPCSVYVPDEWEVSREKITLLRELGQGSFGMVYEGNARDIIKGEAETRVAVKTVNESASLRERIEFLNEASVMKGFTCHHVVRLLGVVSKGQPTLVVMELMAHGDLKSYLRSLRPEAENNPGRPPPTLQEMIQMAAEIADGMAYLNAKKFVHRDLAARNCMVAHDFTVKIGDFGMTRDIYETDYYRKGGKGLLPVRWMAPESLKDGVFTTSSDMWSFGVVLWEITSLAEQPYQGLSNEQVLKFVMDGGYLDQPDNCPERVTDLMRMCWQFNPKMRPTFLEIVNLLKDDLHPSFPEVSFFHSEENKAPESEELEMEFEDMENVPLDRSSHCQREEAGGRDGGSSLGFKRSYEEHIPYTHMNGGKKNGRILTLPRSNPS

SMILES: O=c1c(O)c(-c2cc(O)c(O)c(O)c2)oc2cc(O)cc(O)c12 [MYRICETIN]
- Ki (Insulin receptor): 2600 nM
- Ki [1]: 1800 nM

SMILES: CO[C@H]1[C@@H](OC)C[C@H](C)[C@@H](OC)C2=CC(=O)C=C(NC(=O)/C(C)=C/C=C/[C@H](OC)[C@@H](OC(N)=O)/C(C)=C/[C@@H]1C)C2=O [HERBIMYCIN]
- IC50 (K562): 95 nM
- IC50 (SR): > 1000 nM
- IC50 (RPMI-8226): > 1000 nM
- IC50 (HL-60(TB)): > 1000 nM
- IC50 (CCRF-CEM): > 1000 nM
- IC50 (MOLT-4): > 1000 nM

SMILES: O=CN/C=C/c1cc(O)ccc1O [ERBSTATIN]
- GI50 [2]: 3 µg/mL (≈ 16.7 µM)
- IC50 [3]: 3070 nM
- GI50 (L1210 [4]): 3 µg/mL (≈ 16.7 µM)
- GI50 (A-431): 3 µg/mL (≈ 16.7 µM)
- T/C (L1210 [5]): 155%
